The record followed here is ChEMBL document CHEMBL1201862, “PubChem BioAssay data set” (2004).

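Dose response: 5 concentrations. Exposure: 48 h. Format: 96-well plates. Endpoint: linear interpolation; highest concentration if not reached. Abbreviation: GI50, concentration required for 50% inhibition of growth.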 Active and inactive are the calls of the source. Cut-off read from the data, not from the text of the source: active = GI50 up to about 1.1 µM and inactive = higher.

Some test systems named below: SK-MEL-5; NCI-H23; HT-29; A498; DU-145; EKVX; MDA-N; UACC-257; HOP-92; HCC 2998; LOX IMVI; BT-549; M19-MEL; A549; SNB-19; SW-620; RXF 393; T47D; PC-3; OVCAR-8.
What all share (test): NCI-60 cell line screen, 48 h

Turning to `COc1ccc(CC2NCCc3cc(OC)c(OC)cc32)cc1Br` (stereo not drawn), the GI50 in the assay with SK-MEL-5 is 13 µM (inactive); in the assay on NCI-H23, 23 µM (inactive); in the assay with HT-29, 19.1 µM (inactive); with A498, 30.1 µM (inactive); in the assay on DU-145, > 100 µM (inactive); with EKVX, 35.2 µM (inactive). In addition, the GI50 is 18.2 µM (inactive) with MDA-N; 17.3 µM (inactive) in the assay on UACC-257; 15.1 µM (inactive) in the assay on HOP-92; 18 µM (inactive) in the assay on HCC 2998; 19.1 µM (inactive) with LOX IMVI; 87.5 µM (inactive) in the assay with BT-549. For the same compound, the GI50 was 20.7 µM (inactive) in the assay on M19-MEL; 56 µM (inactive) in the assay on A549; 78.3 µM (inactive) in the assay on SNB-19; 30.9 µM (inactive) with SW-620; 15.1 µM (inactive) in the assay with RXF 393; 27.9 µM (inactive) in the assay on T47D. Besides, the GI50 is 72.4 µM (inactive) with PC-3 and 50.2 µM (inactive) in the assay with OVCAR-8.

Consider `Nc1nc(F)nc2c1ncn2C1OC(COP(=O)(O)O)C(O)C1O` (stereo not drawn), for which the GI50 was 56.4 µM (inactive) in the assay on SK-MEL-5; 19.6 µM (inactive) with NCI-H23; 310 µM (inactive) with HT-29; 146 µM (inactive) in the assay with A498; 9.57 µM (inactive) with DU-145; 45.9 µM (inactive) with EKVX. The GI50 in the assay on MDA-N is 34 µM (inactive); in the assay on UACC-257, 146 µM (inactive); in the assay on HOP-92, 7.38 µM (inactive); in the assay with HCC 2998, 177 µM (inactive); with LOX IMVI, 53.8 µM (inactive); in the assay with BT-549 it was 56.2 µM (inactive). The GI50 with M19-MEL is 46.1 µM (inactive); in the assay with A549 it was 40.7 µM (inactive); in the assay on SNB-19, 25.1 µM (inactive); with SW-620 it was 64.9 µM (inactive); in the assay on RXF 393 it was 51.4 µM (inactive); with T47D, 78.7 µM (inactive). The GI50 in the assay on PC-3 was 16.6 µM (inactive); in the assay with OVCAR-8 it was 2.91 µM (inactive).

In the case of `COc1cc2c(c(OC)c1OC)-c1ccc(SC)c(=O)cc1C(CO)C2` (stereo not drawn), the GI50 with SK-MEL-5 was 0.172 µM (active); in the assay on NCI-H23, 0.307 µM (active); in the assay with HT-29, 0.134 µM (active); with A498 it was 0.107 µM (active); with EKVX it was 0.603 µM (active); with UACC-257 it was 0.0578 µM (active). Moreover, the GI50 is 0.451 µM (active) in the assay with HOP-92; 0.185 µM (active) in the assay on HCC 2998; 0.22 µM (active) with LOX IMVI; 0.15 µM (active) in the assay with M19-MEL; 0.22 µM (active) in the assay on A549; 0.802 µM (active) with SNB-19. Besides, the GI50 in the assay on SW-620 is 0.167 µM (active); in the assay with RXF 393, 0.104 µM (active); with OVCAR-8, 0.188 µM (active).

Regarding `CN(C)[C@H]1CC[C@H]2[C@@H]3CCC4C[C@@H](NC(=O)NC(Cc5ccccc5)c5nccs5)CC[C@]4(C)[C@H]3CC[C@]12C` (stereo partly drawn), the GI50 was 0.789 µM (active) in the assay with SK-MEL-5; 1.77 µM (inactive) in the assay on NCI-H23; 0.33 µM (active) with HT-29; 1.69 µM (inactive) in the assay with A498; 2.28 µM (inactive) in the assay on DU-145; 1.96 µM (inactive) in the assay with EKVX. Moreover, the GI50 is 0.35 µM (active) in the assay with MDA-N; 1.87 µM (inactive) with UACC-257; 1.53 µM (inactive) with HOP-92; 1.75 µM (inactive) in the assay with HCC 2998; 1.66 µM (inactive) with LOX IMVI; 1.79 µM (inactive) in the assay with BT-549. Further, the GI50 in the assay on M19-MEL is 1.85 µM (inactive); in the assay on A549, 1.58 µM (inactive); in the assay on SNB-19, 1.79 µM (inactive); in the assay with SW-620, 0.687 µM (active); in the assay on RXF 393, 1.54 µM (inactive); in the assay on T47D, 1.76 µM (inactive). Also, the GI50 was 0.509 µM (active) in the assay on PC-3 and 0.667 µM (active) in the assay on OVCAR-8.

For `CCCCCC1CC=CC(NC(=O)OCc2ccccc2)C1/C=C/CCCC1OCCO1` (stereo not drawn), the GI50 with SK-MEL-5 is 17.9 µM (inactive); in the assay with NCI-H23 it was 44.7 µM (inactive); in the assay with HT-29, > 100 µM (inactive); in the assay on A498 it was 17.7 µM (inactive); in the assay on EKVX, 96.6 µM (inactive); in the assay with UACC-257 it was 50.7 µM (inactive). The GI50 was > 45.7 µM (inactive) in the assay with HOP-92; 78.3 µM (inactive) with HCC 2998; 57.7 µM (inactive) in the assay with LOX IMVI; > 91.4 µM (inactive) in the assay on M19-MEL; 23.3 µM (inactive) in the assay with A549; 74.1 µM (inactive) in the assay with SNB-19. Moreover, the GI50 was > 100 µM (inactive) in the assay on SW-620, 15.1 µM (inactive) in the assay with RXF 393 and 73.6 µM (inactive) in the assay with OVCAR-8.

On to `[N-]=[N+]=NC(c1cn(C2CC(O)C(CO)O2)c(=O)[nH]c1=O)C(I)I` (stereo not drawn), for which the GI50 was > 100 µM (inactive) in the assay on SK-MEL-5; 71 µM (inactive) with NCI-H23; > 100 µM (inactive) in the assay with HT-29; > 100 µM (inactive) in the assay with A498; > 100 µM (inactive) in the assay on EKVX; > 100 µM (inactive) with UACC-257. The GI50 in the assay with HOP-92, with HCC 2998, in the assay with LOX IMVI, in the assay with M19-MEL, in the assay on A549 and with SNB-19 was > 100 µM (inactive) throughout. Also, the GI50 in the assay with SW-620, in the assay with RXF 393 and in the assay on OVCAR-8 was > 100 µM (inactive) each time.

Regarding `O=CC(O)C(O)C(O)COc1cc(CO)cc2c1C(=O)c1ccccc1C2=O` (stereo not drawn), the GI50 in the assay on SK-MEL-5 is 79.4 µM (inactive); in the assay on NCI-H23 it was > 100 µM (inactive); with HT-29, > 100 µM (inactive); with A498, > 100 µM (inactive); with EKVX, > 100 µM (inactive); in the assay with UACC-257, > 100 µM (inactive). For the same compound, the GI50 with HOP-92 is > 100 µM (inactive); with HCC 2998 it was > 100 µM (inactive); with LOX IMVI it was 99.1 µM (inactive); in the assay on M19-MEL it was 37.6 µM (inactive); in the assay on A549 it was > 100 µM (inactive); with SNB-19, > 100 µM (inactive). The GI50 in the assay on SW-620, in the assay with RXF 393 and in the assay with OVCAR-8 was > 100 µM (inactive) in each case.

As for `CC(=O)c1cccc(NC(=O)C(=O)NNc2nnc(S)n2N)c1`, the GI50 in the assay with SK-MEL-5 is 1.21 µM (inactive); with NCI-H23, 3.18 µM (inactive); with HT-29, 9.4 µM (inactive); with A498, 20.4 µM (inactive); in the assay on DU-145, 6.58 µM (inactive); with EKVX, 14.2 µM (inactive). In addition, the GI50 in the assay on MDA-N was 2.27 µM (inactive); with UACC-257, 2.75 µM (inactive); in the assay with HOP-92, 13.9 µM (inactive); in the assay on HCC 2998 it was 14.1 µM (inactive); in the assay on LOX IMVI, 1.64 µM (inactive); in the assay on BT-549, 2.34 µM (inactive). Moreover, the GI50 in the assay with M19-MEL is 0.805 µM (active); in the assay with A549, 3.75 µM (inactive); in the assay on SNB-19, 6.25 µM (inactive); in the assay on SW-620, 7.73 µM (inactive); with RXF 393 it was 10.4 µM (inactive); in the assay with T47D it was 3.5 µM (inactive). Besides, the GI50 was 3.27 µM (inactive) in the assay with PC-3 and 5.46 µM (inactive) in the assay on OVCAR-8.

Take `CCOC(=O)C1Oc2ccc([N+](=O)[O-])cc2C1(C)O` (stereo not drawn): the GI50 in the assay with SK-MEL-5, in the assay on NCI-H23, with HT-29, with A498, with EKVX and in the assay on UACC-257 was > 100 µM (inactive) each time. The GI50 with HOP-92, in the assay on HCC 2998, in the assay on LOX IMVI, with M19-MEL, in the assay with A549 and in the assay on SNB-19 was > 100 µM (inactive) in each case. The GI50 in the assay on SW-620, in the assay with RXF 393 and with OVCAR-8 was > 100 µM (inactive) each time.

Take `CCOC(OC1=C(C#N)CCC1)C(CC)[Se]c1ccccc1` (stereo not drawn): the GI50 in the assay on SK-MEL-5 is 15 µM (inactive); in the assay with NCI-H23, 9.98 µM (inactive); with HT-29 it was 26.4 µM (inactive); with A498, 80.4 µM (inactive); in the assay on EKVX it was 35.7 µM (inactive); with UACC-257, 80.9 µM (inactive). Further, the GI50 in the assay with HOP-92 is 23.4 µM (inactive); in the assay with HCC 2998, 13.6 µM (inactive); in the assay with LOX IMVI, 4.5 µM (inactive); in the assay with M19-MEL, 13.9 µM (inactive); in the assay on A549, 63.1 µM (inactive); in the assay on SNB-19, 48.1 µM (inactive). The GI50 in the assay with RXF 393 was 20.9 µM (inactive); in the assay with OVCAR-8 it was 23.7 µM (inactive).

As to `C=CCOC1=C2CC[C@H](O)[C@@]2(C)CCC1=O`, the GI50 in the assay on SK-MEL-5, in the assay on HT-29, in the assay on A498, in the assay with EKVX, with UACC-257 and in the assay with HOP-92 was > 100 µM (inactive) in each case. Moreover, the GI50 in the assay on HCC 2998, with LOX IMVI, with M19-MEL, in the assay with A549, with SNB-19 and with SW-620 was > 100 µM (inactive) in each case. Further, the GI50 in the assay with RXF 393 and in the assay with OVCAR-8 was > 100 µM (inactive) each time.
